Test results from the supplement of paper PMC9262897, “Low-cost anti-mycobacterial drug discovery using engineered E. coli” (Nature Communications, 2022).

Legend:
[1] = system: E. coli TESEC strain (Mtb target enzyme); assay: growth (OD600 after 10 h); higher = more growth
Procedure: (§1)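 Chemical-genetic validation profiles: TESEC strains (Mtb Asd or DapB, arabinose-inducible) or the wild-type control grown in a two-dimensional dilution series of drug (µM) and arabinose. Growth is read as OD600 after 10 h in triplicate.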

[2] = system: E. coli wild-type control; assay: growth (OD600 after 10 h); higher = more growth
Procedure: as §1

[3] = system: E. coli TESEC Mtb Alr; assay: growth (OD600 after 10 h, mean); higher = more growth;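 also: E. coli lacking its native Alr, complemented by codon-optimized Mtb Alr under a feedback-controlled arabinose-inducible plasmid circuit, grown in defined medium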
Procedure: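 TESEC Mtb Alr E. coli grown in a two-dimensional dilution series of drug (µM) and arabinose (12 to 1e8 nM). Growth is read as OD600 after 10 h; values are means of 3 biological replicates.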

N=C(N)c1ccc(OCCCCCOc2ccc(C(=N)N)cc2)cc1 [Pentamidine] (TESEC target enzyme: Mtb DapB)
growth
Details	drug 0.7 µM	drug 1.5 µM	drug 3.5 µM	drug 7.8 µM	drug 17.6 µM	drug 39.5 µM	drug 88.9 µM
[1], arabinose 15560 nM	0.117	0.131	–	–	–	–	–
[1], arabinose 28008 nM	0.207	0.18	–	–	–	–	–
[1], arabinose 50414 nM	0.186	0.187	–	–	–	–	–
[1], arabinose 90744 nM	0.207	0.195	–	–	–	–	–
[1], arabinose 163340 nM	0.225	0.21	–	–	–	–	–
[1], arabinose 294012 nM	0.218	0.235	–	–	–	–	–
[1], arabinose 529221 nM	0.208	0.192	–	–	–	–	–
[1], arabinose 952599 nM	0.2	0.225	–	–	–	–	–
[1], arabinose 1714678 nM	0.16	0.182	–	–	–	–	–
[1], arabinose 3086420 nM	0.133	0.153	–	–	–	–	–
[1], arabinose 5555556 nM	0.131	0.146	–	–	–	–	–
[1], arabinose 10000000 nM	0.127	0.124	–	–	–	–	–
[2], arabinose 15560 nM	0.275	0.32	0.321	0.289	0.269	0.258	–
[2], arabinose 28008 nM	0.317	0.309	0.301	0.293	0.231	0.259	–
[2], arabinose 50414 nM	0.321	0.318	0.304	0.291	0.235	0.233	–
[2], arabinose 90744 nM	0.29	0.289	0.305	0.312	0.261	0.246	–
[2], arabinose 163340 nM	0.311	0.319	0.308	0.271	0.257	0.256	–
[2], arabinose 294012 nM	0.207	0.29	0.277	0.313	0.271	0.249	–
[2], arabinose 529221 nM	0.168	0.225	0.257	0.302	0.257	0.251	–
[2], arabinose 952599 nM	0.163	0.141	0.201	0.236	0.221	0.239	0.206
[2], arabinose 1714678 nM	0.137	0.161	0.193	0.18	0.179	0.231	0.161
[2], arabinose 3086420 nM	0.13	0.149	0.156	0.185	0.113	0.145	0.157
[2], arabinose 5555556 nM	0.125	0.126	0.177	0.203	0.12	0.136	0.16
[2], arabinose 10000000 nM	0.115	0.151	0.13	0.16	0.129	0.131	–

N[C@@H]1CONC1=O [D-cycloserine]
growth, [3]
Details	drug 7.81 µM	drug 15.62 µM	drug 31.25 µM	drug 62.5 µM	drug 125 µM
arabinose 12 nM	0.367	0.327	0.0519	0.0505	–
arabinose 24 nM	0.363	0.325	0.0523	0.0512	–
arabinose 48 nM	0.367	0.326	0.0519	0.0518	–
arabinose 95 nM	0.358	0.336	0.0543	0.0501	–
arabinose 191 nM	0.376	0.332	0.121	0.0494	–
arabinose 381 nM	0.373	0.348	0.254	0.05	–
arabinose 763 nM	0.382	0.365	0.305	0.0501	–
arabinose 1526 nM	0.38	0.373	0.349	0.131	0.0482
arabinose 3052 nM	0.367	0.373	0.386	0.29	0.0489
arabinose 6104 nM	0.357	0.356	0.411	0.348	0.0678
arabinose 12207 nM	0.329	0.328	0.375	0.378	0.251
arabinose 24414 nM	0.288	0.298	0.315	0.371	–
arabinose 48828 nM	0.285	0.291	0.29	0.341	–
arabinose 97656 nM	0.29	0.284	0.292	0.306	–
arabinose 195312 nM	0.306	0.3	0.311	0.31	–
arabinose 390625 nM	0.318	0.32	0.322	0.327	–
arabinose 781250 nM	0.307	0.304	0.312	0.32	–
arabinose 1562500 nM	0.282	0.283	0.29	0.294	–
arabinose 3125000 nM	0.269	0.264	0.272	0.276	–
arabinose 6250000 nM	0.253	0.247	0.25	0.252	–
arabinose 12500000 nM	0.237	0.234	0.248	0.239	–
arabinose 25000000 nM	0.225	0.229	0.227	0.231	–
arabinose 50000000 nM	0.195	0.204	0.199	0.204	–
arabinose 100000000 nM	0.154	0.163	0.16	0.16	–

Nc1nc2ccc(OC(F)(F)F)cc2s1 [Riluzole] (TESEC target enzyme: Mtb Asd)
growth
Details	drug 1.7 µM	drug 3.9 µM	drug 8.7 µM	drug 19.5 µM	drug 43.9 µM	drug 98.8 µM	drug 222.2 µM
[1], arabinose 15560 nM	0.165	0.155	–	–	–	–	–
[1], arabinose 28008 nM	0.133	0.157	–	–	–	–	–
[1], arabinose 50414 nM	0.166	0.157	–	–	–	–	–
[1], arabinose 90744 nM	0.192	0.171	–	–	–	–	–
[1], arabinose 163340 nM	0.22	0.199	–	–	–	–	–
[1], arabinose 294012 nM	0.261	0.239	–	–	–	–	–
[1], arabinose 529221 nM	0.271	0.263	–	–	–	–	–
[1], arabinose 952599 nM	0.28	0.312	–	–	–	–	–
[1], arabinose 1714678 nM	0.284	0.319	–	–	–	–	–
[1], arabinose 3086420 nM	0.246	0.237	–	–	–	–	–
[1], arabinose 5555556 nM	0.236	0.223	–	–	–	–	–
[1], arabinose 10000000 nM	0.215	0.224	–	–	–	–	–
[2], arabinose 15560 nM	0.226	0.226	0.232	0.219	0.202	0.188	–
[2], arabinose 28008 nM	0.2085	0.207	0.219	0.223	0.208	0.197	–
[2], arabinose 50414 nM	0.234	0.217	0.222	0.235	0.207	0.202	–
[2], arabinose 90744 nM	0.232	0.243	0.222	0.286	0.22	0.205	–
[2], arabinose 163340 nM	0.227	0.236	0.232	0.237	0.217	0.216	–
[2], arabinose 294012 nM	0.229	0.227	0.2601	0.231	0.221	0.216	–
[2], arabinose 529221 nM	0.227	0.236	0.226	0.208	0.221	0.231	–
[2], arabinose 952599 nM	0.2317	0.226	0.263	0.207	0.233	0.235	0.123
[2], arabinose 1714678 nM	0.195	0.2	0.235	0.193	0.233	0.213	0.115
[2], arabinose 3086420 nM	0.148	0.149	0.183	0.214	0.236	0.231	0.122
[2], arabinose 5555556 nM	0.154	0.157	0.196	0.157	0.171	0.19	0.126
[2], arabinose 10000000 nM	0.148	0.165	0.146	0.21	0.162	0.202	–
